Results on five substances are retold here after patent publication US20140194361A1, “Vault Agents for Treating Chronic Kidney Disease” (priority 2010, published 2014).

One test deals with integrin. The test can be described thus: experimentally verified RGD inhibitors blocking fibronectin adhesion to integrin. The source says:
Preferably, the synthetic analog inhibitors should have higher affinity to the integrin than the RGD loop of fibronectin. […] These two cyclic peptides were also used as reference structures to construct new inhibitors.
Combining the experimental results with the data obtained from our calculations we were able to predict the efficiency of the various inhibitors and to determine which structure is the most favorable fragment with regard to integrin binding energy.

The subject of test [1] is extracellular matrix and signaling proteins of DN. Put plainly: expression of extracellular matrix and signaling proteins of DN in cells (immunoblotting). Conditions: for expression of extracellular matrix and signaling proteins of DN: serum-starved 48 h, treated 48 h, vs RGE/CRGE peptides. Type of test: cell-based. Here is the method: Cells were serum-starved for 48 h and then untreated or treated with or without the unmodified RGD/RGE and modified CRGD/CRGE peptide for 48 h.
Background: In western blotting, separated proteins are transferred to a membrane and probed.

Test [2] relates to type 1 diabetic Ins2Akita/+ mice. The test can be described thus: prevention of progression of DN in type 1 diabetic Ins2Akita/+ mice. Type of test: in vivo. Here is the method:
(§1) We investigated the ability of cyclic GRGDSP vs. GRGESP in a pilot study to prevent accumulation of glomerular lesions in early DN in 20 week old diabetic type 2 db/db vs non-diabetic db/m and diabetic type 1 Ins2Akita+ vs. non-diabetic Ins2+/+ mice with GRGESP and […] and observed up to 52% reduction in albuminuria in the type 2 diabetic mice (FIGS. 1-2) and ˜70% reduction in albuminuria in the type 1 diabetic mice (FIG. 6).

The subject of test [3] is aged type 2 diabetic db/db mice. The test can be described thus: regression of established DN in aged type 2 diabetic db/db mice. The format is in vivo.
Test [4] has as its system type 2 diabetic db/db mice. Put plainly: prevention of progression of early DN in type 2 diabetic db/db mice. Type of test: in vivo.
Source text: There was no change in blood pressure or plasma glucose in either the diabetic or non-diabetic animals.
There was no change in creatinine clearance in the cyclic-GRGESP-control peptide treated diabetic animals
In addition, glomerular volume measured by fractional volume of expansion by electron microscopy was normalized, p<0.05 after 12 weeks of treatment.
as §1

[5] abbreviates: 2400 μg/kg, after 4, 8 and 12 weeks of treatment.
Where [6] appears, read: type 2 and type 1 diabetic mice, 400-2400 μg/kg.

Entries after “also recorded” stand apart in the source; their conditions may differ. No end group written: not given here.

As to cyc-RGDSPCG, the “efficiency as inhibitor (experimentally verified)” value (from here on “efficiency as inhibitor”) in the test on integrin is “efficient inhibitors”.

For cyc-RGDSPG, in the test with integrin, the “efficiency as inhibitor” value is given as “successful candidate of inhibitors; also recorded: efficient inhibitors”.

On to cyc-RGDSPSG (cyclised or stapled), for which the “efficiency as inhibitor” value in the test on integrin is listed as “efficient inhibitors”.

In the case of “CGRGDSP (also: cyclic peptide, ring closure not given here) [cyclic GRGDSP peptide with an added cysteine linker (free cysteine residue)]”, the “integrin-mediated cellular signaling by TGF-β, AKT and STAT3” value in test [1] (kinetic studies and immunoblotting) is “inhibition”. For the same substance, the “expression of extracellular matrix and signaling proteins of DN” value in test [1] is on record as “significantly reduced”.

Regarding GRGDSP [cyclic-GRGDSP], the “albuminuria measured as albumin-to-creatinine ratio” value in test [2] (setting [5]) is “ameliorated albuminuria”. The “glomerular expression of extracellular matrix proteins (fibronectin, collagen I and collagen IV)” value in test [2] (after 12 weeks of treatment) is reported as “reduced glomerular expression of extracellular matrix proteins”. Moreover, the reduction in albuminuria in test [2] (type 1 diabetic mice, 400-2400 μg/kg) is reported as roughly 70%. Also, the reduction in albuminuria result in test [3] (21-week-old db/db mice, 2400-4800 μg/kg, 4 weeks i.p.) was “up to 71%”. Further, in test [3] (2400-4800 μg/kg, 4 weeks i.p.), the “expression of fibronectin, collagen I, collagen IV, TGF-β, ERK/MAPK and Nox4 (Western blot of kidney cortical tissues)” value is “reduced expression”; the “glomerulosclerosis index (Periodic Schiff stained kidney section)” value was “significant reduction”; the mesangial expansion result is recorded as “reduced mesangial expansion”. Also, in test [3] (3600 and 4800 μg/kg, 4 weeks intraperitoneal, dose-dependent), the “reduction of albumin excretion rate” value is given as “up to 71%”. Further, in test [3] (3600 and 4800 μg/kg, 4 weeks, dose-dependent), the “glomerular extracellular matrix proteins (fibronectin, collagen I and collagen IV)” value is recorded as “reduced glomerular extracellular matrix proteins”. For the same substance, the “expression of known signaling molecules of DN” value in test [3] (3600 and 4800 μg/kg, dose-dependent) is listed as “reduced the expression”. Also, the “expression of extracellular matrix and signaling proteins of DN” value in test [1] is listed as “significantly reduced”. Further, the “amelioration of albumin excretion rate” value in test [4] (setting [5]) is on record as “up to 52%”. Further, in test [4] (after 12 weeks of treatment), the “glomerular extracellular matrix expansion (periodic acid Schiff staining)” value is “prevented glomerular extracellular matrix expansion” and the “glomerular volume (fractional volume of expansion by electron microscopy)” value is “normalized”. The “albumin excretion rate in control animals” value in test [4] (control type 2 diabetic animals, 2400 μg/kg) is “did not alter”. Besides, in test [4] (db/db vs db/m mice, 400-2400 μg/kg, after 4 weeks of treatment, vs cyclic-GRGESP control), the albumin excretion rate entry was “ameliorating albumin excretion rate in a dose dependent manner”. In test [4] (setting [6]), the “DN signaling proteins by Western blot” value is on record as “significant reduction”; the “glomerular expression extracellular matrix by Periodic Acid Schiff and electron microscopy” value is given as “significant reduction”. For the same substance, in test [4] (type 2 diabetic mice, 400-2400 μg/kg), the reduction in albuminuria entry is recorded as “up to 52%”.
